Counter-ions that a name gives are not always drawn.
Tested on: mildly overweight individuals with type 2 diabetes
Assay: not given
Details: seven day study, versus placebo; cited from earlier work

Row | Compound | hepatic glucose production
1 | CC1(C)[C@@H](OC(=O)CCC(=O)O)CC[C@]2(C)[C@H]3C(=O)C=C4[C@@H]5C[C@@](C)(C(=O)O)CC[C@]5(C)CC[C@@]4(C)[C@]3(C)CC[C@@H]12 [carbenoxolone] | decrease in hepatic glucose production

Biological target: T1, recombinant human 11beta-HSD1 (Homo sapiens, UniProt P28845)
T1 construct: Full length recombinant human 11β-HSD1 cDNAs and the cDNA encoding human 11β-HSD2 were expressed stably in HEK 293 EBNA cells; made in house
Assay: 11β-HSD1 SPA enzyme assay (in vitro inhibition, human microsomes, 3H-cortisone)
Assay type: biochemical
Details: microsomes from HEK 293 EBNA cells, 40 nM 3H-cortisone, 4 hrs room temperature
Procedure: The in vitro inhibition of recombinant human 11beta-HSD1 was determined as follows.
[^3H]-Cortisone with a specific radioactivity of 50 Ci/mmol (ART 743, Lot: 050906) was from American Radiolabeled Chemicals, Inc. (St Louis, Mo.); monoclonal ab to Cortisol (P01-9294M-P, Lot: L-28) was from East Coast Bio., (North Berwick, Me.); Protein A-yttrium silicate, type-1, SPA bead NJ® (RPN-143) was from Amersham LifeSciences, (Piscataway, N.J.); 384 well-Optiplate384® (#6007299) was from PerkinElmer (Boston, Mass.); DPBS, pH 7.4 (14040) is from GIBCO, (Grand Island, N.Y.); carbenoxolone (C4790) is from Sigma, (St Louis, Mo.).
Full length recombinant human 11β-HSD1 cDNAs and the cDNA encoding human 11β-HSD2 were expressed stably in HEK 293 EBNA cells. Cells were grown in DMEM (high glucose) containing MEM non-essential amino acids, L-glutamine, hygromycin B (200 μg/ml), and G-418 (200 μg/ml) in the presence of 10% FBS.
Human 11β-HSD1 transfected HEK 293 EBNA cells were grown to 80% confluency and the cell pellet was quick frozen and stored at −80° C. before purification. Cell paste, 40 g from −80° C. storage, was thawed in water and then 100 ml of homogenization buffer H (0.01 M sodium phosphate pH 6.5 containing 0.25 M sucrose and protease inhibitor cocktail (Roche #1836145 1 tablet per 50 ml) were added to completely thaw the paste. The cell paste suspension was homogenized using a Polytron for 20 seconds to create a homogeneous mixture. Additional buffer H was added to a volume of 300 ml and cells were broken open using a N2-bomb (at 4° C.) in two batches by treating at 500 psi. The extract was centrifuged at 750×g for 30 min. The supernatant was centrifuged at 20,000×g for 30 min. The supernatant was further centrifuged at 105,000×g for 60 min. The 105,000×g pellet was resuspended in buffer H and centrifuged at 105,000×g for 60 min. The microsome pellet was scraped from the bottom of tube and resuspended in 0.01M phosphate buffer, pH 6.5 containing protease inhibitors (Roche #1836145, 1 tablet per 50 ml). Aliquots were stored at −80° C. until needed. The protein concentration was measured by the BioRad method using BSA standard.
Compounds were dissolved in DMSO to obtain 10 mM stock concentrations. From the 10 mM stock, the compounds were diluted in DMSO to achieve the concentrations.
11β-HSD1 SPA Enzyme Assay
11β-HSD1 was assayed by Scintillation Proximity assay in a 384-well Perkin Elmer white plate. The dose response of the compounds was determined using 11 half-log dilutions of compound in DMSO in duplicate. To each well, 0.5 μl of compound dilution in DMSO were added. 15 μl of assay buffer (for blanks) or 15 μl of human microsomes in assay buffer were added next and the plates were incubated for 10 min at room temperature. The final microsomal protein concentration was 1.1 μg/assay. Duplicates were in the same plate one row below the other. 10 μl of ^3H-cortisone (final concentration 40 nM) was added to each well and the plate was spun down to mix and bring down the contents to the bottom of the wells. The plates were incubated at room temperature with gentle shaking for 4 hrs. The reaction was stopped with addition of 10 μl of 10 mM carbenoxolone. Then, 0.5 mg of yttrium silicate SPA beads coupled to anti-cortisol antibody in 20 μl were added to all the wells of plate, which were spun down once more and incubated at room temperature overnight. The plate was read in a TopCount® (1 min/well). Data were uploaded automatically to Tool Set, a Lead Evaluation informatics program for data capture and calculation. Graphs were generated with the Curve Master program.

T1 sequence (P28845 whole entry): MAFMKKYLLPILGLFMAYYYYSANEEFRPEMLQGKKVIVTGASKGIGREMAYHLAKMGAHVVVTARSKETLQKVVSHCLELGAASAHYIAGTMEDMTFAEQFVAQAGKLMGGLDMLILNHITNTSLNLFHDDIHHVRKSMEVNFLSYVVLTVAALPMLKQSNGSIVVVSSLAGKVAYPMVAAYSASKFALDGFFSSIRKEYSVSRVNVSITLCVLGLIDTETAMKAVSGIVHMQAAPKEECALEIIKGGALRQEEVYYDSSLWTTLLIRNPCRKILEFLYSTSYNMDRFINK

Row | Compound | IC50 [nM]
2 | FC(F)(F)Oc1ccccc1Oc1nccn2c(C3(c4ccc(Cl)cc4)CC3)nnc12 [Example 4, 8-(2-(Trifluoromethoxy)phenoxy)-3-(1-(4-chlorophenyl)cyclopropyl)-[1,2,4]triazolo[4,3-a]pyrazine] | 0.5
3 | Clc1ccc(C2(c3nnc4c(C5CC5)nccn34)CCC2)c(Cl)c1 [Example 6] | 0.6
4 | C=CCCc1nccn2c(C3(c4ccc(Cl)cc4)CC3)nnc12 [Example 25] | 1.3
5 | Clc1ccc(C2(c3nnc4nc(C5CC5)ccn34)CC2)cc1 [Example 3, 3-(1-(4-Chlorophenyl)cyclopropyl)-7-cyclopropyl-[1,2,4]triazolo[4,3-a]pyrimidine] | 453
6 | CC(C)(c1ccc(Cl)cc1)c1nnc2c(C3CC3)nccn12 [Example 1, 3-(2-(4-Chlorophenyl)propan-2-yl)-8-cyclopropyl-[1,2,4]triazolo[4,3-a]pyrazine] | 1.8
7 | CC(C)(Oc1ccccc1)c1nnc2c(Cl)nccn12 [Example 16] | 6030

The remaining lines, values ahead:

Row | IC50 [nM] | Compound
8 | 7.9 | CC(C)(O)c1nccn2c(C3(c4ccc(Cl)cc4)CC3)nnc12 [Example 35, 2-(3-(1-(4-Chlorophenyl)cyclopropyl)-[1,2,4]triazolo[4,3-a]pyrazin-8-yl)propan-2-ol TFA salt]
9 | 1.2 | CC(C)(O)c1ccnn2c(C3(c4ccc(Cl)cc4)CC3)nnc12 [Example 36, 2-(3-(1-(4-Chlorophenyl)cyclopropyl)-[1,2,4]-triazolo[4,3-b]pyridazin-8-yl)propan-2-ol]
10 | 86 | Clc1ccc(C2(c3nnc4c5sccc5ncn34)CC2)cc1 [Example 28, 3-(1-(4-Chlorophenyl)cyclopropyl)thieno[2,3-e][1,2,4]triazolo[4,3-c]pyrimidine]
11 | 5130 | CC(C)(c1ccc(F)cc1)c1nnc2c(Cl)nccn12 [Example 41]
12 | 336 | OC12CCC(c3nnc4c(Oc5ccccc5Cl)nccn34)(CC1)C2 [Example 27]
13 | 1.8 | CC(C)(Oc1ccc(Cl)cc1Cl)c1nnc2c(C3CC3)nccn12 [Example 38]
14 | 12 | Clc1ccc(C2(c3nnc4c5c(cnn34)CCCC5)CC2)cc1 [Example 29, 3-(1-(4-Chlorophenyl)cyclopropyl)-7,8,9,10-tetrahydro-[1,2,4]-triazolo[3,4-a]phthalazine TFA Salt]

Reference: US8546394B2, “Substituted [1,2,4]triazolo[4,3-A]pyrazine 11-beta-hydroxysteroid dehydrogenase inhibitors” (Bristol-Myers Squibb Company, priority 2007, dated 2013)
